# Data as given in patent publication US10759809B2 (priority 2017, dated 2020).
# Counter-ions that a name gives are not always drawn.
# Tests used:
# Kunming mice = assay: animal or person; type: in vivo; settings: Mus musculus, po, 1 h
# SD rat = assay: animal or person; type: in vivo; settings: po, 1 h
# SD rats = settings: male, rat, in vivo
# Mice = settings: both, mouse, in vivo
SMILES,ED50 (Kunming mice),ED50 (SD rat),"Residence time in drug-side box (Mean ± S, s) (SD rats)",Inhibition of activated carbon excretion (Mice)
"[2H]c1c([2H])c2c3c(c1O)O[C@H]1[C@@]4(OC)CC[C@@]5(C[C@@H]4[C@](C)(O)C(C)(C)C)[C@@H](C2)N(CC2CC2)CC[C@]315 [I5•HCl, (2S)-2-[(5R, 6R, 7R, 14S)-1,2-dideutero-N-cyclopropylmethyl-4,5-epoxy-6,14-ethano-3-hydroxy-6-methoxymorphinan-7-yl]-3,3-dimethylbutan-2-ol]",8.02 ± 11.3 mg/kg,31.1 ± 10.9 mg/kg,,
"[2H]c1c([2H])c2c3c(c1O)O[C@H]1[C@@]4(OC)CC[C@@]5(C[C@@H]4[C@](C)(O)C(C)(C)C)[C@@H](C2)N(C([2H])([2H])C2CC2)CC[C@]315 [I6•HCl, (2S)-2-[(5R, 6R, 7R, 14S)-1,2-dideutero-N-(cyclopropyl-dideuteromethyl)-4,5-epoxy-6,14-ethano-3-hydroxy-6-methoxymorphinan-7-yl]-3,3-dimethylbutan-2-ol]",5.83 ± 2.23 mg/kg,18 ± 8.56 mg/kg,,
"[2H]C([2H])(C1CC1)N1CC[C@]23c4c5ccc(O)c4O[C@H]2[C@@]2(OC)CC[C@@]3(C[C@@H]2[C@](C)(O)C(C)(C)C)[C@H]1C5 [I1•HCl, (2S)-2-[(5R, 6R, 7R, 14S)—N-(cyclopropyl-dideuteromethyl)-4,5-epoxy-6, 14-ethano-3-hydroxy-6-methoxymorphinan-7-yl]-3,3-dimethylbutan-2-ol]",6.54 ± 2.96 mg/kg,19 ± 7.29 mg/kg,149.19 ± 36.88 s,36.31 ± 2.78%
"[2H]C1C([2H])[C@]23C[C@H]([C@](C)(O)C(C)(C)C)[C@@]1(OC)C1Oc4c(O)ccc5c4[C@@]12CCN(CC1CC1)[C@@H]3C5 (stereo partly drawn) [I7•HCl, (2S)-2-[(5R, 6R, 7R, 14S)—N-(cyclopropyl-methyl)-4,5-epoxy-6,14-dideuteroethano-3-hydroxy-6-methoxymorphinan-7-yl]-3,3-dimethylbutan-2-ol]",12 ± 11.7 mg/kg,38 ± 19.7 mg/kg,,
"CO[C@]12CC[C@@]3(C[C@@H]1[C@](C)(O)C(C)(C)C)[C@H]1Cc4ccc(O)c5c4[C@@]3(CCN1CC1CC1)[C@H]2O5 [buprenorphine•HCl, (2S)-2-[(5R, 6R, 7R, 14S)—N-cyclopropylmethyl-4,5-epoxy-6, 14-ethano-3-hydroxy-6-methoxymorphinan-7-yl]-3,3-di methylbutan-2-ol, reference compound]",11.8 ± 11.7 mg/kg,> 50 mg/kg,277.56 ± 164.99 s,63.87 ± 2.16%
